Measurements taken from ChEMBL document CHEMBL4041501, “Isolation of Acacetin from Calea urticifolia with Inhibitory Properties against Human Monoamine Oxidase-A and -B” (J Nat Prod, 2016).

Experiments:
[1] = molecular target: T1, Amine oxidase [flavin-containing] A (Homo sapiens, UniProt P21397); assay: Competitive inhibition of recombinant human MAO-A assessed as reduction in 4-hydroxyquinoline formation using varying levels of kynuramine as substrate after 20 mins by Lineweaver-Burk plot analysis
T1 sequence (P21397 whole entry): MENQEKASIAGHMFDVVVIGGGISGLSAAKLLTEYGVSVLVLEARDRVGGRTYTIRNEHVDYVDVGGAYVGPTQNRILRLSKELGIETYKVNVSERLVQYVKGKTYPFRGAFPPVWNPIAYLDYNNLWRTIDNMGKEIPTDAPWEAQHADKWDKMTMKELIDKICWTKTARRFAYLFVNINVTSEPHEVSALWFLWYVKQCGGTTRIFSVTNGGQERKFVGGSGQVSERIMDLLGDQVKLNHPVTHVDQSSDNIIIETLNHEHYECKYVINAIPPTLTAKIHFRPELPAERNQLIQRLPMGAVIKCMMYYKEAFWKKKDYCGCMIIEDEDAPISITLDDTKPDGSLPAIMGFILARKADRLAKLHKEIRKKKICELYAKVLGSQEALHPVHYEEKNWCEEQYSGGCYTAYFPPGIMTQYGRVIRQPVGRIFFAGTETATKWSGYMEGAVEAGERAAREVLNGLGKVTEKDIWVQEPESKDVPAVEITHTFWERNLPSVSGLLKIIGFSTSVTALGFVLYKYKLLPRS

[2] = molecular target: T2, Amine oxidase [flavin-containing] B (Homo sapiens, UniProt P27338); assay: Reversible inhibition of recombinant human MAO-B assessed as recovery of enzyme activity at 5 uM preincubated for 20 mins followed by overnight dialysis; design: scale not given: the % may be the effect or the level left
T2 sequence (P27338 whole entry): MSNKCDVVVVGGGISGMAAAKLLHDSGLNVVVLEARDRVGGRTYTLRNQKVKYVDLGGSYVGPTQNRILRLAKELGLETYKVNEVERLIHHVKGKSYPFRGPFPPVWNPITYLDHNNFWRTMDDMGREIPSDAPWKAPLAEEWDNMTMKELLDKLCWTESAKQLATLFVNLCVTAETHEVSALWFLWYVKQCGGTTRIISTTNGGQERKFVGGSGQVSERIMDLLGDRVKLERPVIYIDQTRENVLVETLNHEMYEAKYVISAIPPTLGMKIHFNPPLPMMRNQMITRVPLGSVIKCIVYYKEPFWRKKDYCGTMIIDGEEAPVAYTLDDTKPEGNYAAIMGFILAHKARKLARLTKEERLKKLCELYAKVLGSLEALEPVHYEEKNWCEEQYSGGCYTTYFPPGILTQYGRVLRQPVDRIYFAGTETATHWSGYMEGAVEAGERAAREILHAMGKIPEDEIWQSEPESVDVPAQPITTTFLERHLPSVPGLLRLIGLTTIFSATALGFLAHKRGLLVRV

[3] = molecular target: T1, Amine oxidase [flavin-containing] A; assay: Time-dependent inhibition of recombinant human MAO-A assessed as reduction in 4-hydroxyquinoline formation at 0.5 uM using kynuramine as substrate preincubated up to 15 mins followed by substrate addition by fluorometric assay
[4] = molecular target: T2, Amine oxidase [flavin-containing] B; assay: Time-dependent inhibition of recombinant human MAO-B assessed as reduction in 4-hydroxyquinoline formation at 0.2 uM using kynuramine as substrate preincubated up to 15 mins followed by substrate addition by fluorometric assay
[5] = molecular target: T2, Amine oxidase [flavin-containing] B; assay: Inhibition of recombinant human MAO-B at 5 uM after 20 mins relative to control
[6] = molecular target: T1, Amine oxidase [flavin-containing] A; assay: Reversible inhibition of recombinant human MAO-A assessed as recovery of enzyme activity at 15 uM preincubated for 20 mins followed by overnight dialysis relative to control; design: scale not given: the % may be the effect or the level left; settings: read-out: Activity
[7] = molecular target: T1, Amine oxidase [flavin-containing] A; assay: Inhibition of recombinant human MAO-A assessed as reduction in 4-hydroxyquinoline formation using kynuramine as substrate after 20 mins by fluorometric assay
[8] = molecular target: T1, Amine oxidase [flavin-containing] A; assay: Inhibition of recombinant human MAO-A at 15 uM after 20 mins relative to control
[9] = molecular target: T1, Amine oxidase [flavin-containing] A; assay: Inhibition of recombinant human MAO-A after 30 mins
[10] = molecular target: T2, Amine oxidase [flavin-containing] B; assay: Inhibition of recombinant human MAO-B after 30 mins

Compound	Ki [1]	Activity [2]	TDI [3]	TDI [4]	inhibition (INH) [5]	activity at 15 µM [6]	IC50 [7]	inhibition at 15 µM [8]	IC50 [9]	IC50 [10]
COc1ccc(-c2cc(=O)c3c(O)cc(O)cc3o2)cc1 [ACACETIN]	0.0592 µM	90%	Not Active	Not Active	90%	> 90%	0.121 µM	> 95%		
O=C1C[C@@H](c2ccc(O)cc2)Oc2cc(O)cc(O)c21 [NARINGENIN]									955 µM	288 µM
